For experiment [1], the system named is CNS cancer cell lines. The experiment in a line: NCI SRB screen, CNS panel average. The following applies: Homo sapiens, 48 h, read-out: Log10 GI50 (converted).
Experiment [2] relates to Colon cancer cell lines. Briefly: NCI SRB screen, Colon panel average. Conditions: Homo sapiens, 48 h, read-out: Log10 GI50 (converted).
For experiment [3], the system named is Renal cancer cell lines. The experiment in a line: NCI SRB screen, Renal panel average. Conditions: Homo sapiens, 48 h, read-out: Log10 GI50 (converted).
Experiment [4] relates to Ovarian cancer cell lines. Briefly: NCI SRB screen, Ovarian panel average. Conditions: Homo sapiens, 48 h, read-out: Log10 GI50 (converted).
The test system of experiment [5] is Leukemia cell lines. Briefly: NCI SRB screen, Leukemia panel average. Conditions: Homo sapiens, 48 h, read-out: Log10 GI50 (converted).
Experiment [6] deals with Melanoma cell lines. Briefly: NCI SRB screen, Melanoma panel average. Conditions: Homo sapiens, 48 h, read-out: Log10 GI50 (converted).
For experiment [7], the system named is Prostate cancer cell lines. The experiment in a line: NCI SRB screen, Prostate panel average. Conditions: Homo sapiens, 48 h, read-out: Log10 GI50 (converted).
In experiment [8] the test system is Breast Cancer cell lines. The experiment in a line: NCI SRB screen, Breast Cancer panel average. Conditions: Homo sapiens, 48 h, read-out: Log10 GI50 (converted).
The test system of experiment [9] is Non-small-cell lung cancer cell lines. Briefly: NCI SRB screen, Non-small-cell lung panel average. Conditions: Homo sapiens, 48 h, read-out: Log10 GI50 (converted).
Experiment [10] deals with fifty six human tumor cell lines. Briefly: NCI human tumor cell line screen (48 h, SRB), all cell lines. Conditions: various cell lines.

On to `COC(=O)Nc1nc2ccc(C(=O)c3cccs3)cc2[nH]1` [Nocodazole, reference compound], for which the GI50 was 22.9 nM in experiment [1]; 17.8 nM in experiment [2]; 107 nM in experiment [3]; 145 nM in experiment [4]; 12.3 nM in experiment [5]; 22.4 nM in experiment [6]. Further, the figures for the GI50 in [7], in [8] and in [9] were 14.5 nM, 155 nM and 20.4 nM, respectively.
Turning to `COc1ccc(-c2cc(-c3nc4cc(Cl)c(F)cc4[nH]3)[nH]n2)c(OC)c1` [13e, 5-chloro-2-(3-(2,4-dimethoxyphenyl)-1H-pyrazol-5-yl)-6-fluoro-1H-benzo[d]imidazole], in experiment [10], the “mean graph pattern: profile of activity and selectivity” value is “an interesting profile of activity and selectivity”.
Same read-out and setting: the value for `COc1ccc(-c2cc(-c3nc4cc(Cl)ccc4[nH]3)[nH]n2)c(OC)c1` [8e, 5-chloro-2-(3-(2,4-dimethoxyphenyl)-1H-pyrazol-5-yl)-1H-benzo[d]imidazole] was “an interesting profile of activity and selectivity”.
On to `COc1ccc(-c2cc(-c3nc4cc(C(F)(F)F)ccc4[nH]3)[nH]n2)c(OC)c1` [11e, 2-(3-(2,4-dimethoxyphenyl)-1H-pyrazol-5-yl)-5-(trifluoromethyl)-1H-benzo[d]imidazole], for which, in experiment [10], the “mean graph pattern: profile of activity and selectivity” value is “an interesting profile of activity and selectivity”.
For `COc1ccc(-c2cc(-c3nc4cc([N+](=O)[O-])ccc4[nH]3)[nH]n2)c(OC)c1` [12e, 2-(3-(2,4-dimethoxyphenyl)-1H-pyrazol-5-yl)-5-nitro-1H-benzo[d]imidazole], the “mean graph pattern: profile of activity and selectivity” value in [10] is “an interesting profile of activity and selectivity”.
The same measure, in the same setting: the value for `COc1ccc(-c2cc(-c3nc4cc(Cl)c(Cl)cc4[nH]3)[nH]n2)c(OC)c1` [10e, 5,6-dichloro-2-(3-(2,4-dimethoxyphenyl)-1H-pyrazol-5-yl)-1H-benzo[d]imidazole] was “an interesting profile of activity and selectivity”.
On the same count and under the same terms, the value for `COc1ccc(-c2cc(-c3nc4cc(F)ccc4[nH]3)[nH]n2)c(OC)c1` [7e, 2-(3-(2,4-dimethoxyphenyl)-1H-pyrazol-5-yl)-5-fluoro-1H-benzo[d]imidazole] was “an interesting profile of activity and selectivity”.

Values taken from patent US9951049B2, “Pyrazole linked benzimidazole conjugates and a process for preparation thereof” (Council of Scientific & Industrial Reseach, priority 2014, dated 2018).
